From BindingDB's records for doi:10.1021/acs.jmedchem.9b01709 (The Institute of Cancer Research, 2019) come the findings set out here.

The target in this experiment is Heat shock 70 kDa protein 1A (HSP72/HSPA1A) (Homo sapiens) (UniProt P0DMV8). Nature of the experiment: Covalent inhibition of HSP72-NBD (unknown origin) nucleotide-derived FP probe displacement based by fluorescence polarization assay.
Chain of Heat shock 70 kDa protein 1A (HSP72/HSPA1A) (Homo sapiens) (P0DMV8 whole entry, looked up): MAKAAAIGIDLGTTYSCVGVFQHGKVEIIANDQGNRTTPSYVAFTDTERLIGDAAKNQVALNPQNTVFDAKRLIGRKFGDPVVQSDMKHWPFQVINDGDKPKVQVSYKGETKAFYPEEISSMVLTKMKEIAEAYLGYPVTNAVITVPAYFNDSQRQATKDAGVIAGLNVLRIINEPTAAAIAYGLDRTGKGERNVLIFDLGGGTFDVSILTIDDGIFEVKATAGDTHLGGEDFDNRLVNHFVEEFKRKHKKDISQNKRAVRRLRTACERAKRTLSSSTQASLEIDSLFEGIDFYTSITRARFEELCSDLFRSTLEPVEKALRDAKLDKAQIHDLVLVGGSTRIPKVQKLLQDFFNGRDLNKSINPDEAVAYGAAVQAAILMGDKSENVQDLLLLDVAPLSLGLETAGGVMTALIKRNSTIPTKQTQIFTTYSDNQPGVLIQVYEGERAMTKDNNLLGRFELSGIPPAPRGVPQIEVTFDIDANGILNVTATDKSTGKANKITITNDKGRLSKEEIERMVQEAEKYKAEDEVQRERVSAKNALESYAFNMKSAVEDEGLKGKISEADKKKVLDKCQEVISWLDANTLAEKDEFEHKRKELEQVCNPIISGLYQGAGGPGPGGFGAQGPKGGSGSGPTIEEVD

As for `N#Cc1ccc(COC[C@H]2O[C@@H](n3c(NCc4ccc(Cl)c(Cl)c4)nc4c(N)ncnc43)[C@H](O)[C@@H]2O)cc1` [adenosine-derived inhibitor (Grp78), 13], the Ki is below 200 nM.
